The record followed here is US12448389B2, “BRM targeting compounds and associated methods of use” (Prelude Therapeutics Incorporated, priority 2020, dated 2025).

The term DC50 denotes the midpoint of the concentration-degradation curve. For orientation: Dmax means the greatest extent of degradation seen.

Some results are limits rather than exact numbers.

One experiment has as its target T1, SMARCA2-HiBiT (Homo sapiens, UniProt P51531).
T1 construct: SMARCA2-HiBiT knock-in Hela monoclonal cell (CS302366); host or cells: HeLa monoclonal knock-in line (CRISPR HiBiT knock-in at the endogenous locus, heterozygous)
In words: SMARCA2 HiBiT degradation assay in HeLa cells. Format: cell-based. The conditions noted are these: 18 hours incubation; for DC50: read-out: HeLa_HiBit-SM2 DC50; for Dmax: HeLa, read-out: HeLa-HiBit-SM2 Dmax (%). The gist of the method:
(§1)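 HeLa monoclonal lines with heterozygous HiBiT knock-in were seeded at 2500 cells/well in EMEM with 10% FBS and treated with compound for 18 h at 37 °C. Remaining tagged protein was measured by Nano-Glo HiBiT lytic luminescence after 30–60 min at RT, and values came from curve fitting.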
On the technique in general: With HiBiT, luminescence reflects the tagged protein that the partner subunit can reach.

Another experiment deals with T2, SMARCA4-HiBiT (Homo sapiens, UniProt P51532).
T2 construct: SMARCA4-HiBiT knock-in Hela monoclonal cell (CS3023226); host or cells: HeLa monoclonal knock-in line (CRISPR HiBiT knock-in at the endogenous locus, heterozygous)
T2 sequence (P51532 whole entry): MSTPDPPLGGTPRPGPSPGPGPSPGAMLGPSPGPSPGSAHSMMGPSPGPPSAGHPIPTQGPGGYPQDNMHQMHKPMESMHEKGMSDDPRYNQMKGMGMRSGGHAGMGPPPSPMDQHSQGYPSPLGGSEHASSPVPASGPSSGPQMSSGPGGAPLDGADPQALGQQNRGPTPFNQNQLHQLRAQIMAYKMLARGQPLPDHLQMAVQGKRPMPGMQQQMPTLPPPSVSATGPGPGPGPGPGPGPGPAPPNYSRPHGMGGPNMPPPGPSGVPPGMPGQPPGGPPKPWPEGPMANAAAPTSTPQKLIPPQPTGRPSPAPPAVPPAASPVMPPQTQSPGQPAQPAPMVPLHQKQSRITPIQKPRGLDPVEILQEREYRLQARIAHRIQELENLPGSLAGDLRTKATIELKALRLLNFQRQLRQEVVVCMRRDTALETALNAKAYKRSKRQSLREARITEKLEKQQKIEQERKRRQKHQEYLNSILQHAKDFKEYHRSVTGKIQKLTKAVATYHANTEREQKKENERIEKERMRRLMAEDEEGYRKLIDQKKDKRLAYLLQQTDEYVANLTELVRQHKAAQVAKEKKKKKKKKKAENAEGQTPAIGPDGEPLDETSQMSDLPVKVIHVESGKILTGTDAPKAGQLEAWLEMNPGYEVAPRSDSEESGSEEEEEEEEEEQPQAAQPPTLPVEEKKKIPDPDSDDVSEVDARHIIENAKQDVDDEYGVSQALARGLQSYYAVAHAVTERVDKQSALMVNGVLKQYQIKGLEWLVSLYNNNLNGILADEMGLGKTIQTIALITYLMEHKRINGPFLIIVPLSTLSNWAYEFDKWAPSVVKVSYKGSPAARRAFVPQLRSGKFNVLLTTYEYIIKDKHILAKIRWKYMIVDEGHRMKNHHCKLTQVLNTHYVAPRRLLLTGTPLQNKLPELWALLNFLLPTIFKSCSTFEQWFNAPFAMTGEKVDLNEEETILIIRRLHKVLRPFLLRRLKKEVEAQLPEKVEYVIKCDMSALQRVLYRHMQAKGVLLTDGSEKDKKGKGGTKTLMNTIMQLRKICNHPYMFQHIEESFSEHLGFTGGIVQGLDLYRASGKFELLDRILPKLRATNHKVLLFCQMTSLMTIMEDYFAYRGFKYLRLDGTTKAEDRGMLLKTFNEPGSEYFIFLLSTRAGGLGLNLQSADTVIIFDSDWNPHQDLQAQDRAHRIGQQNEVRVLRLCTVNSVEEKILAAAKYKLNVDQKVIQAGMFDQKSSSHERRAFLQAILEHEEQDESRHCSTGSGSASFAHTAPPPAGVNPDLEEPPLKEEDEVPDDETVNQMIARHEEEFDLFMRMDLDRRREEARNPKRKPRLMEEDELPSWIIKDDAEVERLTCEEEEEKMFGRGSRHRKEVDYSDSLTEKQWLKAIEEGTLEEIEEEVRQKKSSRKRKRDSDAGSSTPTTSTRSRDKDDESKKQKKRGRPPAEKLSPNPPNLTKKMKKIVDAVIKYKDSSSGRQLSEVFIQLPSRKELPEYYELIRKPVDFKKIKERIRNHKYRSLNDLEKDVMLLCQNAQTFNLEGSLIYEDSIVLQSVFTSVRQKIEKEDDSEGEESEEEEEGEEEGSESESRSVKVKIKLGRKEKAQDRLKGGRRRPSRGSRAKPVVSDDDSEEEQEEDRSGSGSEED
Nature of the experiment: SMARCA4 HiBiT degradation assay in HeLa cells. Format: cell-based. The conditions noted are these: 18 hours incubation; for DC50: read-out: HeLa-HiBit-SM4 DC50; for Dmax: HeLa, read-out: HeLa-HiBit-SM4 Dmax (%). In short, it runs like this: as §1

T1 sequence (P51531 whole entry): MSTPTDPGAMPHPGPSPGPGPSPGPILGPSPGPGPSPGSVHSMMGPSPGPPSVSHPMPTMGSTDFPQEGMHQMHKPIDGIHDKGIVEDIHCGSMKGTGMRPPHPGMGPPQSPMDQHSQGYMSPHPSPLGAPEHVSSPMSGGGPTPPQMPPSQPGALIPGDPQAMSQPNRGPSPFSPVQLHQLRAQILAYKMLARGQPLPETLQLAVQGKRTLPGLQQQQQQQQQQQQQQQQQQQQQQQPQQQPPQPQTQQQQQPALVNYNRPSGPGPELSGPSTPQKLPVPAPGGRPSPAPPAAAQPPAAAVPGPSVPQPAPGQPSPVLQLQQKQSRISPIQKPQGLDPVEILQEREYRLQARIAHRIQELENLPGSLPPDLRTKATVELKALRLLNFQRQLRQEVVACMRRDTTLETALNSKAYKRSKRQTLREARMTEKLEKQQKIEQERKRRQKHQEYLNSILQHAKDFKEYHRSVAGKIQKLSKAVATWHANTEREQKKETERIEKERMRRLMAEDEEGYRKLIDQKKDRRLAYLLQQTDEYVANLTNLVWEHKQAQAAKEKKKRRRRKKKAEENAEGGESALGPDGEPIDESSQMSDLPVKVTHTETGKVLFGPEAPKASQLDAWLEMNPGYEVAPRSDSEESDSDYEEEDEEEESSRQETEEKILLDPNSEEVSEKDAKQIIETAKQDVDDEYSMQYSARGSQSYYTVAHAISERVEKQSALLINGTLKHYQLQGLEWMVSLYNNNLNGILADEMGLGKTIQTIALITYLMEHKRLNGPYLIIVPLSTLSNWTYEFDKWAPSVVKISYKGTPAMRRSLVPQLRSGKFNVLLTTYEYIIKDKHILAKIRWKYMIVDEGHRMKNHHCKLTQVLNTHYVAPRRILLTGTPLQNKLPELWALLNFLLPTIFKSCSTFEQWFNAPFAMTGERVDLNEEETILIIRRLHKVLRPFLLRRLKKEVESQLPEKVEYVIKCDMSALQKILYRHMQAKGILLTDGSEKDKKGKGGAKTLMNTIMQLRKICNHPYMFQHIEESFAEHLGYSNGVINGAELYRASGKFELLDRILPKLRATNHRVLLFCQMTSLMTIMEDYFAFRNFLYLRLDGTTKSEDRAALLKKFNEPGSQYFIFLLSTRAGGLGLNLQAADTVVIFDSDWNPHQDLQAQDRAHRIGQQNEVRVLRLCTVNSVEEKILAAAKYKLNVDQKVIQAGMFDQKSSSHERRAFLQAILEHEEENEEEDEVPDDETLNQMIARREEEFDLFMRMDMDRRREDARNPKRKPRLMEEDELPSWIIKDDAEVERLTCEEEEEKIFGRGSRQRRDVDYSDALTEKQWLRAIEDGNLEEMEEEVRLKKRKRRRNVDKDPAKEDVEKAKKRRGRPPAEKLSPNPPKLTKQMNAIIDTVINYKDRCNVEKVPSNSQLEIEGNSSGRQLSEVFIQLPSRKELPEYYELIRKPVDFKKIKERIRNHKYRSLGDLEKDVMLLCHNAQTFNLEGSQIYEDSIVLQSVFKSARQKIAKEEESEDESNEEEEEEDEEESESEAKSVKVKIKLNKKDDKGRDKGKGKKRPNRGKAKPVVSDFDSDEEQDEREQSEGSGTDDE

In the case of `CN(CCN1CCC(C(=O)N2CCN3c4cc(-c5ccccc5O)nnc4NC[C@H]3C2)CC1)c1ccc2c(c1)C(=O)N(C1CCC(=O)NC1=O)C2=O` (stereo partly drawn) [Example 222, 2-(2,6-dioxopiperidin-3-yl)-5-((2-(4-((S)-2-(2-hydroxyphenyl)-6,6a,7,8,9,10-hexahydro-5H-pyrazino[1′,2′:4,5]pyrazino[2,3-c]pyridazine-8-carbonyl)piperidin-1-yl)ethyl)(methyl)amino) isoindoline-1,3-dione], at SMARCA2-HiBiT, the DC50 is below 10 nM and the Dmax fell in the range of 50 to 75%. Further, on SMARCA4-HiBiT, the DC50 fell in the range of 100 to 1000 nM and the Dmax is at most 50%.

For the compound `O=C1CCC(N2Cc3ccc(C4CCN(CCN5CCC(N6CCN7c8cc(-c9ccccc9O)nnc8NC[C@H]7C6)CC5)CC4)cc3C2=O)C(=O)N1` (stereo partly drawn) [Example 118, 3-(6-(1-(2-(4-((S)-2-(2-hydroxyphenyl)-5,6,6a,7,9,10-hexahydro-8H-pyrazino[1′,2′:4,5]pyrazino[2,3-c]pyridazin-8-yl)piperidin-1-yl)ethyl)piperidin-4-yl)-1-oxoisoindolin-2-yl)piperidine-2,6-dione], on SMARCA2-HiBiT, the half-maximal degradation concentration (DC50) was below 10 nM and the greatest degradation seen (Dmax) was above 85%. Further, at SMARCA4-HiBiT, the DC50 is 10 to 100 nM and the Dmax was above 85%.

As for `O=C1CCC(N2Cc3cc(CN4CCC(CCc5cnc(N6CCN7c8cc(-c9ccccc9O)nnc8NC[C@H]7C6)nc5)CC4)ccc3C2=O)C(=O)N1` (stereo partly drawn) [Example 64, 3-(5-((4-(2-(2-((S)-2-(2-hydroxyphenyl)-5,6,6a,7,9,10-hexahydro-8H-pyrazino[1′,2′:4,5]pyrazino[2,3-c]pyridazin-8-yl)pyrimidin-5-yl)ethyl)piperidin-1-yl)methyl)-1-oxoisoindolin-2-yl)piperidine-2,6-dione], on SMARCA2-HiBiT, the DC50 is below 10 nM and the Dmax was above 85%. At SMARCA4-HiBiT, the DC50 was below 10 nM and the maximal degradation (Dmax) lay within 75 to 85%.

As to `O=C1CCC(N2C(=O)c3ccc(N4CCCC5(CCN(CCN6CCN7c8cc(-c9ccccc9O)nnc8NC[C@H]7C6)CC5)C4)cc3C2=O)C(=O)N1` (stereo partly drawn) [Example 94, 2-(2,6-dioxopiperidin-3-yl)-5-(9-(2-((S)-2-(2-hydroxyphenyl)-5,6,6a,7,9,10-hexahydro-8H-pyrazino[1′,2′:4,5]pyrazino[2,3-c]pyridazin-8-yl)ethyl)-2,9-diazaspiro [5.5]undecan-2-yl) isoindoline-1,3-dione], on SMARCA2-HiBiT, the DC50 was below 10 nM and the greatest degradation seen (Dmax) lay within 50 to 75%. For the same compound, on SMARCA4-HiBiT, the DC50 is below 10 nM and the maximal degradation (Dmax) is 50 to 75%.

For `O=C1CCC(N2C(=O)c3ccc(N4CCN(CC5CCC(CN6CCN7c8cc(-c9ccccc9O)nnc8NC[C@H]7C6)CC5)CC4)cc3C2=O)C(=O)N1` (stereo partly drawn) [Example 168, 2-(2,6-dioxopiperidin-3-yl)-5-(4-((4-(((S)-2-(2-hydroxyphenyl)-5,6,6a,7,9,10-hexahydro-8H-pyrazino[1′,2′:4,5]pyrazino[2,3-c]pyridazin-8-yl)methyl)cyclohexyl)methyl)piperazin-1-yl)isoindoline-1,3-dione], the DC50 on SMARCA2-HiBiT and at SMARCA4-HiBiT was below 10 nM throughout. Besides, the Dmax is above 85% on SMARCA2-HiBiT and 75 to 85% on SMARCA4-HiBiT.

For the compound `CC1CC(N2CCN3c4cc(-c5ccccc5O)nnc4NC[C@H]3C2)CCN1CCCC1CCN(c2cccc3c2C(=O)N(C2CCC(=O)NC2=O)C3=O)CC1` (stereo partly drawn) [Example 126, 2-(2,6-dioxopiperidin-3-yl)-4-(4-(3-(4-((S)-2-(2-hydroxyphenyl)-5,6,6a,7,9,10-hexahydro-8H-pyrazino[1′,2′:4,5]pyrazino[2,3-c]pyridazin-8-yl)-2-methylpiperidin-1-yl)propyl)piperidin-1-yl)isoindoline-1,3-dione], the half-maximal degradation concentration (DC50) at SMARCA2-HiBiT and on SMARCA4-HiBiT was below 10 nM each time. The maximal degradation (Dmax) is above 85% at SMARCA2-HiBiT and 75 to 85% at SMARCA4-HiBiT.

As to `O=C1CCC(N2C(=O)c3ccc(N4CCC(CN5CC6CC(CN7CCN8c9cc(-c%10ccccc%10O)nnc9NC[C@H]8C7)C6C5)C(F)(F)C4)cc3C2=O)C(=O)N1` (stereo partly drawn) [Example 188, 5-[3,3-difluoro-4-[[6-[[(10S)-4-(2-hydroxyphenyl)-1,5,6,8,12-pentazatricyclo[8.4.0.02,7]tetradeca-2(7),3,5-trien-12-yl]methyl]-3-azabicyclo[3.2.0]heptan-3-yl]methyl]piperidin-1-yl]-2-(2,6-dioxopiperidin-3-yl)isoindole-1,3-dione], at SMARCA2-HiBiT, the DC50 is below 10 nM and the Dmax is above 85%. In addition, on SMARCA4-HiBiT, the half-maximal degradation concentration (DC50) is below 10 nM and the Dmax lay within 75 to 85%.

Turning to `O=C1CCC(N2C(=O)c3ccc(N4CCC(CN5CCC(NC(=O)N6CCN7c8cc(-c9ccccc9O)nnc8NC[C@H]7C6)CC5)CC4)cc3C2=O)C(=O)N1` (stereo partly drawn) [Example 80, (6aS)-N-(1-((1-(2-(2,6-dioxopiperidin-3-yl)-1,3-dioxoisoindolin-5-yl)piperidin-4-yl)methyl)piperidin-4-yl)-2-(2-hydroxyphenyl)-5,6,6a,7,9,10-hexahydro-8H-pyrazino[1′,2′:4,5]pyrazino[2,3-c]pyridazine-8-carboxamide], the DC50 at SMARCA2-HiBiT and on SMARCA4-HiBiT was below 10 nM throughout. For the same compound, the greatest degradation seen (Dmax) on SMARCA2-HiBiT and at SMARCA4-HiBiT was above 85% throughout.

Turning to `O=C1CCC(N2C(=O)c3ccc(N4CCC(N[C@H]5C[C@H](CN6CCN7c8cc(-c9ccccc9O)nnc8NC[C@H]7C6)C5)CC4)cc3C2=O)C(=O)N1` (stereo partly drawn) [Example 77, 2-(2,6-dioxopiperidin-3-yl)-5-(4-(((1S,3r)-3-(((S)-2-(2-hydroxyphenyl)-5,6,6a,7,9,10-hexahydro-8H-pyrazino[1′,2′:4,5]pyrazino[2,3-c]pyridazin-8-yl)methyl)cyclobutyl)amino)piperidin-1-yl)isoindoline-1,3-dione], on SMARCA2-HiBiT, the half-maximal degradation concentration (DC50) was below 10 nM and the greatest degradation seen (Dmax) is above 85%. Further, on SMARCA4-HiBiT, the DC50 is below 10 nM and the Dmax is above 85%.

Turning to `O=C1CCC(N2Cc3ccc(N4CCC(CN5C6CCC5CN(C(=O)N5CCN7c8cc(-c9ccccc9O)nnc8NC[C@H]7C5)C6)CC4)cc3C2=O)C(=O)N1` (stereo partly drawn) [Example 103, 3-(6-(4-((3-((S)-2-(2-hydroxyphenyl)-6,6a,7,8,9,10-hexahydro-5H-pyrazino[1′,2′:4,5]pyrazino[2,3-c]pyridazine-8-carbonyl)-3,8-diazabicyclo[3.2.1]octan-8-yl)methyl)piperidin-1-yl)-1-oxoisoindolin-2-yl)piperidine-2,6-dione], the results for the 50% degradation concentration (DC50) at SMARCA2-HiBiT and at SMARCA4-HiBiT were below 10 nM and 10 to 100 nM, respectively. In addition, the maximal degradation (Dmax) on SMARCA2-HiBiT and at SMARCA4-HiBiT was 75 to 85% throughout.

For the compound `O=C1CCC(N2Cc3cc(N4CCC(CN5CCC(OC(=O)N6CCN7c8cc(-c9ccccc9O)nnc8NC[C@H]7C6)CC5)CC4)ccc3C2=O)C(=O)N1` (stereo partly drawn) [Example 83, 1-((1-(2-(2,6-dioxopiperidin-3-yl)-1-oxoisoindolin-5-yl)piperidin-4-yl)methyl)piperidin-4-yl (6aS)-2-(2-hydroxyphenyl)-5,6,6a,7,9,10-hexahydro-8H-pyrazino[1′,2′:4,5]pyrazino[2,3-c]pyridazine-8-carboxylate], the DC50 on SMARCA2-HiBiT and at SMARCA4-HiBiT was below 10 nM in each case. Further, the results for the Dmax on SMARCA2-HiBiT and on SMARCA4-HiBiT were above 85% and 75 to 85%, respectively.

On to `O=C1CCC(N2C(=O)c3ccc(N4CCC5(CC4)CC(CN4CCC(CN6CCN7c8cc(-c9ccccc9O)nnc8NC[C@H]7C6)CC4)C5)cc3C2=O)C(=O)N1` (stereo partly drawn) [Example 150, 2-(2,6-dioxopiperidin-3-yl)-5-(2-((4-(((S)-2-(2-hydroxyphenyl)-5,6,6a,7,9,10-hexahydro-8H-pyrazino[1′,2′:4,5]pyrazino[2,3-c]pyridazin-8-yl)methyl)piperidin-1-yl)methyl)-7-azaspiro[3.5]nonan-7-yl)isoindoline-1,3-dione], for which, on SMARCA2-HiBiT, the half-maximal degradation concentration (DC50) was below 10 nM and the Dmax is above 85%. Also, on SMARCA4-HiBiT, the 50% degradation concentration (DC50) was below 10 nM and the greatest degradation seen (Dmax) is above 85%.

In the case of `O=C1CCC(N2C(=O)c3ccc(N4CCC(CN5CC6COCC(C5)C6CN5CCN6c7cc(-c8ccccc8O)nnc7NC[C@H]6C5)CC4)cc3C2=O)C(=O)N1` (stereo partly drawn) [Example 132, 2-(2,6-dioxopiperidin-3-yl)-5-(4-((9-(((S)-2-(2-hydroxyphenyl)-5,6,6a,7,9,10-hexahydro-8H-pyrazino[1′,2′:4,5]pyrazino[2,3-c]pyridazin-8-yl)methyl)-3-oxa-7-azabicyclo[3.3.1]nonan-7-yl)methyl)piperidin-1-yl)isoindoline-1,3-dione], on SMARCA2-HiBiT, the half-maximal degradation concentration (DC50) is below 10 nM and the Dmax is above 85%. On SMARCA4-HiBiT, the DC50 is below 10 nM and the maximal degradation (Dmax) is 75 to 85%.

With `C[C@H]1CN2c3cc(-c4ccccc4O)nnc3NC[C@H]2CN1C[C@H]1[C@@H]2CN(C[C@H]3CCN(c4ccc5c(c4)C(=O)N(C4CCC(=O)NC4=O)C5)C[C@@H]3F)C[C@@H]21` (stereo partly drawn) [Example 204, 3-[5-[(3R,4R)-3-fluoro-4-[[(1S,5R)-6-[[(10S,13S)-4-(2-hydroxyphenyl)-13-methyl-1,5,6,8,12-pentazatricyclo[8.4.0.02,7]tetradeca-2,4,6-trien-12-yl]methyl]-3-azabicyclo[3.1.0]hexan-3-yl]methyl]piperidin-1-yl]-3-oxo-1H-isoindol-2-yl]piperidine-2,6-dione], on SMARCA2-HiBiT, the half-maximal degradation concentration (DC50) is below 10 nM and the maximal degradation (Dmax) lay in the range of 75 to 85%. At SMARCA4-HiBiT, the half-maximal degradation concentration (DC50) is 10 to 100 nM and the Dmax lay within 75 to 85%.
